Measured values as given in patent publication US20220251114A1, “AZEPINES AS HBV CAPSID ASSEMBLY MODULATORS” (Janssen Sciences Ireland Unlimited Company, priority 2019, published 2022).

Tested on: HBV
Test: HBV replication inhibition assay (BDNA assay) in HepG2.2.15 cells
Type: cell-based
Conditions: Hepatitis B virus, 144 h, 6 days treatment, encapsidated HBV DNA in supernatant by branched DNA QuantiGene assay
Method: HBV replication inhibition by the disclosed compounds were determined in cells infected or transfected with HBV or cells with stably integrated HBV, such as HepG2.2.15 cells (Sells et al. 1987). In this example, HepG2.2.15 cells were maintained in cell culture medium containing 10% fetal bovine serum (FBS), Geneticin, L-glutamine, penicillin and streptomycin. HepG2.2.15 cells were seeded in 96-well plates at a density of 40,000 cells/well and were treated with serially diluted compounds at a final DMSO concentration of 0.5% either alone or in combination by adding drugs in a checker box format. Cells were incubated with compounds for three days, after which medium was removed and fresh medium containing compounds was added to cells and incubated for another three days. At day 6, supernatant was removed and treated with DNase at 37° C. for 60 minutes, followed by enzyme inactivation at 75° C. for 15 minutes. Encapsidated HBV DNA was released from the virions and covalently linked HBV polymerase by incubating in lysis buffer (Affymetrix QS0010) containing 2.5 μg proteinase K at 50° C. for 40 minutes. HBV DNA was denatured by addition of 0.2 M NaOH and detected using a branched DNA (BDNA) QuantiGene assay kit according to manufacturer recommendation (Affymetrix). HBV DNA levels were also quantified using qPCR, based on amplification of encapsidated HBV DNA extraction with QuickExtraction Solution (Epicentre Biotechnologies) and amplification of HBV DNA using HBV specific PCR probes that can hybridize to HBV DNA and a fluorescently labeled probe for quantitation. In addition, cell viability of HepG2.2.15 cells incubated with test compounds alone or in combination was determined by using CellTitre-Glo reagent according to the manufacturer protocol (Promega). The mean background signal from wells containing only culture medium was subtracted from all other samples, and percent inhibition at each compound concentration was calculated by normalizing to signals from HepG2.2.15 cells treated with 0.5% DMSO using equation El.
E1: % inhibition=(DMSOave−Xi)/DMSOave×100%
where DMSOave is the mean signal calculated from the wells that were treated with DMSO control (0% inhibition control) and Xi is the signal measured from the individual wells. EC50 values, effective concentrations that achieved 50% inhibitory effect, were determined by non-linear fitting using Graphpad Prism software (San Diego, Calif.) and equation E2.
E2: Y=Ymin+(Ymax−Ymin)/(1+10(Log EC50-X)×HillSlope)
where Y represents percent inhibition values and X represents the logarithm of compound concentrations.
Selected disclosed compounds were assayed in the HBV replication assay (BDNA assay), as described above, and a representative group of these active compounds is shown in Table 3.

SMILES	EC50
N#Cc1cc(NC(=O)N2CCc3nn4c(c3C2)OCC=C(CO)C4)ccc1F [Example 1, N-(3-Cyano-4-fluorophenyl)-4-(hydroxymethyl)-5,8,9,11-tetrahydropyrido-[4′,3′:3,4]pyrazolo[5,1-b] [1,3] oxazepine-10(2H)-carboxamide]	18 nM
N#Cc1cc(NC(=O)N2CCc3nn4c(c3C2)SCCC(O)C4)ccc1F (stereo not shown) [Example 2, N-(3-Cyano-4-fluorophenyl)-4-hydroxy-2,3,4,5,8,9-hexahydropyrido[4′,3′:3,4]-byrazolo[5,1-b][1,3]thiazepine-10(11H)-carboxamide]	15 nM
N#Cc1cc(NC(=O)N2CCc3nn4c(c3C2)SCC(O)CC4)ccc1F (stereo not shown) [Example 3, N-(3-Cyano-4-fluorophenyl)-3-hydroxy-2,3,4,5,8,9-hexahydropyrido[4′,3′:3,4]-pyrazolo[5,1-b][1,3]thiazepine-10(11H)-carboxamide]	5 nM
N#Cc1cc(NC(=O)N2CCc3nn4c(c3C2)[S+]([O-])CCC(O)C4)ccc1F (stereo not shown) [Example 4, N-(3-Cyano-4-fluorophenyl)-4-hydroxy-2,3,4,5,8,9-hexahydropyrido[4′,3′:3,4]-pyrazolo[5,1-b][1,3]thiazepine-10(11H)-carboxamide 1-oxide]	834 nM
N#Cc1cc(NC(=O)N2CCc3nn4c(c3C2)S(=O)(=O)CCC(O)C4)ccc1F (stereo not shown) [Example 5, N-(3-Cyano-4-fluorophenyl)-4-hydroxy-2,3,4,5,8,9-hexahydropyrido[4′,3′:3,4]-pyrazolo[5,1-b][1,3]thiazepine-10(11H)-carboxamide 1,1-dioxide]	40 nM
N#Cc1cc(NC(=O)N2CCc3nn4c(c3C2)[S+]([O-])CC(O)CC4)ccc1F (stereo not shown) [Example 6, N-(3-Cyano-4-fluorophenyl)-3-hydroxy-2,3,4,5,8,9-hexahydropyrido[4′,3′:3,4]-pyrazolo[5,1-b][1,3]thiazepine-10(11H)-carboxamide 1-oxide]	141 nM
N#Cc1cc(NC(=O)N2CCc3nn4c(c3C2)S(=O)(=O)CC(O)CC4)ccc1F (stereo not shown) [Example 7, N-(3-Cyano-4-fluorophenyl)-3-hydroxy-2,3,4,5,8,9-hexahydropyrido[4′,3′:3,4]-pyrazolo[5,1-b][1,3]thiazepine-10(11H)-carboxamide 1,1-dioxide]	3.5 nM
